Common to all, as to format: functional, cell-based
Assay [1] can be described thus: Cytotoxicity against human DU145 cells assessed as cell viability after 48 hrs by MTT assay. The following applies: DU-145, 48 h.
Another assay relates to HeLa. Kind of assay: Cytotoxicity against human HeLa cells assessed as cell viability after 48 hrs by MTT assay.
Another assay deals with A549. Kind of assay: Cytotoxicity against human A549 cells assessed as cell viability after 48 hrs by MTT assay. As to conditions: A549, 48 h.
In another assay the test system is MCF7. Kind of assay: Cytotoxicity against human MCF7 cells assessed as cell viability after 48 hrs by MTT assay. The following applies: MCF7, 48 h. For orientation: Tetrazolium dyes change colour on reduction, which living cells bring about.
The next assay relates to HepG2. Kind of assay: Cytotoxicity against human HepG2 cells assessed as cell viability after 48 hrs by MTT assay. As to conditions: HepG2, 48 h.

For orientation: IC50 means the concentration needed to halve the response being measured. For `CC(C)=CCC/C(C)=C/CC/C(C)=C/CC[C@@H]1[C@@]2(C)C/C(=C\c3ccc(OCc4cn(-c5ccncc5)nn4)cc3)C(=O)C(C)(C)[C@@H]2CC[C@@]1(C)O`, the IC50 is 25.7 µM in assay [1]; 77.6 µM in the assay on HeLa; 34 µM with A549; 37.5 µM in the assay on MCF7; 105 µM in the assay with HepG2.
On the same counts, the results for `CC(C)=CCC/C(C)=C/CC/C(C)=C/CC[C@@H]1[C@@]2(C)C/C(=C\c3ccc(OCc4cn(-c5ccccc5C#N)nn4)cc3)C(=O)C(C)(C)[C@@H]2CC[C@@]1(C)O` are 25.1 µM, 100 µM, 61.6 µM, 29.9 µM and 63.1 µM.
On the same counts, the results for `CC(C)=CCC/C(C)=C/CC/C(C)=C/CC[C@@H]1[C@@]2(C)C/C(=C\c3ccc(OCc4cn(-c5cccc(Br)c5)nn4)cc3)C(=O)C(C)(C)[C@@H]2CC[C@@]1(C)O` are 40.5 µM, 37.1 µM, 33.8 µM, 61 µM and 23.7 µM.
On to `CC(C)=CCC/C(C)=C/CC/C(C)=C/CC[C@@H]1[C@@]2(C)CC/C(=N\OCc3cn(-c4ccc(F)cc4)nn3)C(C)(C)[C@@H]2CC[C@@]1(C)O`, for which the half-inhibitory concentration (IC50) in assay [1] is 21.6 µM; with HeLa, 21.4 µM; with A549 it was 18 µM; with MCF7, 25.9 µM; with HepG2 it was 63.1 µM.
On the same counts, the results for `CC(C)=CCC/C(C)=C/CC/C(C)=C/CC[C@@H]1[C@@]2(C)C/C(=C\c3ccc(OCc4cn(-c5ccc(F)c(Cl)c5)nn4)cc3)C(=O)C(C)(C)[C@@H]2CC[C@@]1(C)O` are 28.4 µM, 43 µM, 46.6 µM, 46.5 µM and 40.2 µM.
On the same counts, the results for `CC(C)=CCC/C(C)=C/CC/C(C)=C/CC[C@@H]1[C@@]2(C)CC/C(=N\OCc3cn(-c4ccccc4C#N)nn3)C(C)(C)[C@@H]2CC[C@@]1(C)O` are 25.1 µM, 21.2 µM, 19.9 µM, 24.9 µM and 21.9 µM.
On the same counts, the results for `CC(C)=CCC/C(C)=C/CC/C(C)=C/CC[C@@H]1[C@@]2(C)CCC(=O)C(C)(C)[C@@H]2CC[C@@]1(C)O` are 13.2 µM, 18.3 µM, 12 µM, 16.2 µM and 26.6 µM.
Consider `CC(C)=CCC/C(C)=C/CC/C(C)=C/CC[C@@H]1[C@@]2(C)C/C(=C\c3ccc(OCc4cn(-c5c(Cl)cc([N+](=O)[O-])cc5Cl)nn4)cc3)C(=O)C(C)(C)[C@@H]2CC[C@@]1(C)O`, for which the IC50 in assay [1] was found to be 20.9 µM; in the assay with HeLa it was 36.9 µM; with A549, 34.7 µM; in the assay with MCF7 it was 27.1 µM; in the assay with HepG2 it was 25.1 µM.
As for `CC(C)=CCC/C(C)=C/CC/C(C)=C/CC[C@@H]1[C@@]2(C)C/C(=C\c3ccc(OCc4cn(-c5cccc(O)c5)nn4)cc3)C(=O)C(C)(C)[C@@H]2CC[C@@]1(C)O`, the IC50 is 40.6 µM in assay [1]; 158 µM in the assay with HeLa; 110 µM in the assay on A549; 45.5 µM with MCF7; 26.9 µM in the assay with HepG2.
In the case of `CC(C)=CCC/C(C)=C/CC/C(C)=C/CC[C@@H]1[C@@]2(C)CC/C(=N\OCc3cn(-c4c(Cl)cc([N+](=O)[O-])cc4Cl)nn3)C(C)(C)[C@@H]2CC[C@@]1(C)O`, the concentration for half-maximal inhibition (IC50) in assay [1] is 16.4 µM; with HeLa it was 23 µM; in the assay with A549 it was 11.2 µM; in the assay with MCF7 it was 16.6 µM; in the assay on HepG2 it was 34.9 µM.
On the same counts, the results for `CC(C)=CCC/C(C)=C/CC/C(C)=C/CC[C@@H]1[C@@]2(C)CC/C(=N\OCc3cn(-c4cccc(C(F)(F)F)c4)nn3)C(C)(C)[C@@H]2CC[C@@]1(C)O` are 11.8 µM, 12.5 µM, 12.9 µM, 21.4 µM and 22.7 µM.
On the same counts, the results for `CC(C)=CCC/C(C)=C/CC/C(C)=C/CC[C@@H]1[C@@]2(C)C/C(=C\c3ccc(OCc4cn(-c5ccc(Cl)cc5)nn4)cc3)C(=O)C(C)(C)[C@@H]2CC[C@@]1(C)O` are 79.4 µM, 50.7 µM, 83.2 µM, 72.4 µM and 123 µM.
Consider `CC(C)=CCC/C(C)=C/CC/C(C)=C/CC[C@@H]1[C@@]2(C)C/C(=C\c3ccc(OCc4cn(-c5ccc(F)cc5)nn4)cc3)C(=O)C(C)(C)[C@@H]2CC[C@@]1(C)O`, for which the IC50 in assay [1] amounted to 33.6 µM; in the assay on HeLa, 126 µM; in the assay on A549, 55.2 µM; with MCF7, 42 µM; with HepG2 it was 35.9 µM.
On the same counts, the results for `CC(C)=CCC/C(C)=C/CC/C(C)=C/CC[C@@H]1[C@@]2(C)CC/C(=N\OCc3cn(-c4ccc(Cl)cc4)nn3)C(C)(C)[C@@H]2CC[C@@]1(C)O` are 16.2 µM, 14.8 µM, 12.3 µM, 12.4 µM and 19.9 µM.
Turning to `CC(C)=CCC/C(C)=C/CC/C(C)=C/CC[C@@H]1[C@@]2(C)CC/C(=N\OCc3cn(-c4ccc(F)c(Cl)c4)nn3)C(C)(C)[C@@H]2CC[C@@]1(C)O`, the concentration for half-maximal inhibition (IC50) turned out to be 26.9 µM in assay [1]; 20.1 µM in the assay on HeLa; 21.4 µM in the assay on A549; 31.4 µM with MCF7; 58.9 µM in the assay with HepG2.
Regarding `CC(C)=CCC/C(C)=C/CC/C(C)=C/CC[C@@H]1[C@@]2(C)CC/C(=N\OCc3cn(-c4ccc(F)c(F)c4F)nn3)C(C)(C)[C@@H]2CC[C@@]1(C)O`, the IC50 in assay [1] was determined as 30.4 µM; in the assay on HeLa, 26.2 µM; with A549, 26.9 µM; with MCF7, 32.2 µM; in the assay with HepG2, 37.7 µM.
On the same counts, the results for `CC(C)=CCC/C(C)=C/CC/C(C)=C/CC[C@@H]1[C@@]2(C)CC/C(=N\OCc3cn(-c4cccc(Br)c4)nn3)C(C)(C)[C@@H]2CC[C@@]1(C)O` are 14.6 µM, 15.7 µM, 11.7 µM, 24.8 µM and 39.8 µM.
`CC(C)=CCC/C(C)=C/CC/C(C)=C/CC[C@@H]1[C@@]2(C)C/C(=C\c3ccc(OCc4cn(-c5ccccc5)nn4)cc3)C(=O)C(C)(C)[C@@H]2CC[C@@]1(C)O`: the half-maximal inhibitory concentration (IC50) in assay [1] is 21 µM; in the assay with HeLa, 36.3 µM; in the assay on A549 it was 100 µM; in the assay with MCF7 it was 23 µM; in the assay with HepG2 it was 126 µM.
For the molecule `CC(C)=CCC/C(C)=C/CC/C(C)=C/CC[C@@H]1[C@@]2(C)CC/C(=N\OCc3cn(-c4ccncc4)nn3)C(C)(C)[C@@H]2CC[C@@]1(C)O`, the IC50 in assay [1] came out at 17.4 µM; in the assay with HeLa, 18.8 µM; in the assay on A549, 13 µM; in the assay on MCF7, 12.6 µM; in the assay on HepG2, 22 µM.
On to `CC(C)=CCC/C(C)=C/CC/C(C)=C/CC[C@@H]1[C@@]2(C)C/C(=C\c3ccc(OCc4cn(-c5cccc([N+](=O)[O-])c5)nn4)cc3)C(=O)C(C)(C)[C@@H]2CC[C@@]1(C)O`, for which the concentration for half-maximal inhibition (IC50) is 46.4 µM in assay [1]; 32.9 µM in the assay with HeLa; 126 µM in the assay on A549; 79.4 µM in the assay with MCF7; 117 µM in the assay with HepG2.
Regarding `COc1cccc(-n2cc(CO/N=C3\CC[C@]4(C)[C@@H](CC/C=C(\C)CC/C=C(\C)CCC=C(C)C)[C@](C)(O)CC[C@H]4C3(C)C)nn2)c1`, the IC50 in assay [1] worked out at 30.5 µM; in the assay on HeLa it was 22.9 µM; with A549 it was 21.7 µM; with MCF7, 25.4 µM; in the assay with HepG2, 51.3 µM.
With `COc1cccc2c1C(=O)c1c(O)c3c(c(O)c1C2=O)C[C@@](O)(C(=O)CO)C[C@@H]3O[C@H]1C[C@H](N)[C@H](O)[C@H](C)O1` [DOXORUBICIN], the IC50 was 1.41 µM in assay [1], 2.57 µM in the assay with HeLa, 2.81 µM in the assay with A549 and 3.01 µM with HepG2.
As for `CC(C)=CCC/C(C)=C/CC/C(C)=C/CC[C@@H]1[C@@]2(C)CC/C(=N\OCc3cn(-c4cccc(O)c4)nn3)C(C)(C)[C@@H]2CC[C@@]1(C)O`, the half-maximal inhibitory concentration (IC50) worked out at 17.5 µM in assay [1]; 13.5 µM in the assay with HeLa; 12.8 µM in the assay on A549; 9.9 µM with MCF7; 21.2 µM in the assay with HepG2.
On the same counts, the results for `CC(C)=CCC/C(C)=C/CC/C(C)=C/CC[C@@H]1[C@@]2(C)CC/C(=N\OCc3cn(-c4cccc([N+](=O)[O-])c4)nn3)C(C)(C)[C@@H]2CC[C@@]1(C)O` are 17.4 µM, 18.4 µM, 14.8 µM, 20.7 µM and 22 µM.
On the same counts, the results for `CC(C)=CCC/C(C)=C/CC/C(C)=C/CC[C@@H]1[C@@]2(C)C/C(=C\c3ccc(OCc4cn(-c5cccc(C(F)(F)F)c5)nn4)cc3)C(=O)C(C)(C)[C@@H]2CC[C@@]1(C)O` are 9.33 µM, 17.3 µM, 23.2 µM, 13.8 µM and 27.6 µM.
Take `COc1cccc(-n2cc(COc3ccc(/C=C4\C[C@]5(C)[C@@H](CC/C=C(\C)CC/C=C(\C)CCC=C(C)C)[C@](C)(O)CC[C@H]5C(C)(C)C4=O)cc3)nn2)c1`: the 50% inhibitory concentration (IC50) was found to be 14.5 µM in assay [1]; 16.2 µM in the assay on HeLa; 45.7 µM in the assay on A549; 16.6 µM in the assay on MCF7; 50.1 µM in the assay on HepG2.
On the same counts, the results for `COc1cc(OC)c(-n2cc(COc3ccc(/C=C4\C[C@]5(C)[C@@H](CC/C=C(\C)CC/C=C(\C)CCC=C(C)C)[C@](C)(O)CC[C@H]5C(C)(C)C4=O)cc3)nn2)c(OC)c1` are 12 µM, 17.5 µM, 16.1 µM, 13.5 µM and 57.5 µM.

Source of the values: ChEMBL document CHEMBL3785005, “Novel triazole hybrids of myrrhanone C, a natural polypodane triterpene: Synthesis, cytotoxic activity and cell based studies” (Eur J Med Chem, 2016).
